According to US11254705B2, “Cyclic peptide analogs and conjugates thereof” (Sirenas LLC, priority 2016, dated 2022):
pIC50: −log10 of the molar value.

system: HCC1954 cells; assay: Inhibition of HCC1954 cell growth (method analogous to BT-474); type: cell-based; settings: Homo sapiens
Experimental: BT-474 human mammary gland ductal carcinoma cells were seeded in a clear polystyrene 96-well microculture plate (Corning® Costar® 96-well flat bottom plate, Cat. #3997) in a total volume of 90 μL/well. After 24 hours of incubation in a humidified incubator at 37° C. with 5% CO2 and 95% air, 10 μL of 10×, serially diluted test agents in growth medium were added to each well (10 pt dose response curve, highest concentration 10 μM of test agent). After 72 hours of culture in a humidified incubator at 37° C., in an atmosphere of 5% CO2 and 95% air, the plated cells and Cell Titer-Glo® (Protnega G7571) reagents were brought to room temperature to equilibrate for 30 minutes. 100 μL of Cell Titer-Glo® reagent was added to each well. The plate was shaken for two minutes and then left to equilibrate for ten minutes. The media/Cell Titer-Glo® reagent was transferred to a white polystyrene 96-well microculture plate (Corning® Costar® 96-well flat bottom plate, Cat. #3917) before reading luminescence on a Tecan GENios microplate reader.
Percent inhibition of cell growth was calculated relative to untreated control wells. The IC50 value for the test agents was determined using Prism 6.05 by curve-fitting of the data using the following four parameter-logistic equation:
[formula] where Top is the maximal % of control absorbance, Bottom is the minimal % of control absorbance at the highest agent concentration, Y is the % of control absorbance, X is the agent concentration, IC50 is the concentration of agent that inhibits cell growth by 50% compared to the control cells, and n is the slope of the curve.
Inhibitory response of test compounds against HCC1954 cells was determined using a method analogous to that used for BT-474 cells.

Row | SMILES | pIC50
1 | C/C=C(\C)[C@H]1OC(=O)[C@@H](C)NC(=O)[C@H]([C@H](C)CC)NC(=O)CN(C)C(=O)[C@@H](Cc2ccc(Cl)cc2)N(C)C(=O)[C@H](C)NC(=O)[C@@H](CC(C)C)OC(=O)/C(C)=C/C[C@H](OC(=O)NCCOCCO)[C@@H]1C [Compound 17, (2R,5S,8R,14S,17R,20S,21S,22S,E)-20-((E)-but-2-en-2-yl)-14-((R)-sec-butyl)-8-(4-chlorobenzyl)-2-isobutyl-5,7,10,17,21,25-hexamethyl-3,6,9,12,15,18,26-heptaoxo-1,19-dioxa-4,7,10,13,16-pentaazacyclohexacos-24-en-22-yl (2-(2-hydroxyethoxy)ethyl)carbamate] | 8.38
2 | C/C=C(\C)[C@H]1OC(=O)C(C)(C)NC(=O)[C@H]([C@H](C)CC)NC(=O)CN(C)C(=O)[C@@H](Cc2ccc(Cl)cc2)N(C)C(=O)[C@H](C)NC(=O)[C@@H](CC(C)C)OC(=O)/C(C)=C/C[C@H](OC(=O)N(C)CCCCCCN(C)C(C)=O)[C@@H]1C [Compound 24, (2R,5S,8R,14S,20S,21S,22S,E)-20-((E)-but-2-en-2-yl)-14-((R)-sec-butyl)-8-(4-chlorobenzyl)-2-isobutyl-5,7,10,17,17,21,25-heptamethyl-3,6,9,12,15,18,26-heptaoxo-1,19-dioxa-4,7,10,13,16-pentaazacyclohexacos-24-en-22-yl methyl(6-(N-methylacetamido)hexyl)carbamate] | 8.68
3 | C/C=C(\C)[C@H]1OC(=O)[C@@H](C)NC(=O)[C@H]([C@H](C)CC)NC(=O)CN(C)C(=O)[C@@H](Cc2ccc(Cl)cc2)N(C)C(=O)[C@H](C)NC(=O)[C@@H](CC(C)C)OC(=O)/C(C)=C/C[C@H](OC(=O)NCCCCCO)[C@@H]1C [Compound 16, (2R,5S,8R,14S,17R,20S,21S,22S,E)-20-((E)-but-2-en-2-yl)-14-((R)-sec-butyl)-8-(4-chlorobenzyl)-2-isobutyl-5,7,10,17,21,25-hexamethyl-3,6,9,12,15,18,26-heptaoxo-1,19-dioxa-4,7,10,13,16-pentaazacyclohexacos-24-en-22-yl (5-hydroxypentyl)carbamate] | 10.00
4 | C/C=C(\C)[C@H]1OC(=O)C(C)(C)NC(=O)[C@H]([C@H](C)CC)NC(=O)CN(C)C(=O)[C@@H](Cc2ccc(Cl)cc2)N(C)C(=O)[C@H](C)NC(=O)[C@@H](CC(C)C)OC(=O)/C(C)=C/C[C@H](OC(=O)N(C)CCCCCCNC)[C@@H]1C [Compound 23, (2R,5S,8R,14S,20S,21S,22S,E)-20-((E)-but-2-en-2-yl)-14-((R)-sec-butyl)-8-(4-chlorobenzyl)-2-isobutyl-5,7,10,17,17,21,25-heptamethyl-3,6,9,12,15,18,26-heptaoxo-1,19-dioxa-4,7,10,13,16-pentaazacyclohexacos-24-en-22-yl methyl(6-(methylamino)hexyl)carbamate] | 9.33
5 | C/C=C(\C)[C@H]1OC(=O)[C@@H](C)NC(=O)[C@H]([C@H](C)CC)NC(=O)CN(C)C(=O)[C@@H](Cc2ccccc2)N(C)C(=O)[C@H](C)NC(=O)[C@@H](CC(C)C)OC(=O)/C(C)=C/C[C@H](OC(=O)NCc2ccc(CO)cc2)[C@@H]1C [Compound 12, (2R,5S,8R,14S,17R,20S,21S,22S,E)-8-benzyl-20-((E)-but-2-en-2-yl)-14-((R)-sec-butyl)-2-isobutyl-5,7,10,17,21,25-hexamethyl-3,6,9,12,15,18,26-heptaoxo-1,19-dioxa-4,7,10,13,16-pentaazacyclohexacos-24-en-22-yl (4-(hydroxymethyl)benzyl)carbamate] | 8.48
6 | C/C=C(\C)[C@H]1OC(=O)[C@@H](C)NC(=O)[C@H]([C@H](C)CC)NC(=O)CN(C)C(=O)[C@@H](Cc2ccc(Cl)cc2)N(C)C(=O)[C@H](C)NC(=O)[C@@H](CC(C)C)OC(=O)/C(C)=C/C[C@H](OC(=O)NCCc2ccc(O)cc2)[C@@H]1C [Compound 18, (2R,5S,8R,14S,17R,20S,21S,22S,E)-20-((E)-but-2-en-2-yl)-14-((R)-sec-butyl)-8-(4-chlorobenzyl)-2-isobutyl-5,7,10,17,21,25-hexamethyl-3,6,9,12,15,18,26-heptaoxo-1,19-dioxa-4,7,10,13,16-pentaazacyclohexacos-24-en-22-yl (4-hydroxyphenethyl)carbamate] | 8.63
7 | C/C=C(\C)[C@H]1OC(=O)C(C)(C)NC(=O)[C@H]([C@H](C)CC)NC(=O)CN(C)C(=O)[C@@H](Cc2ccc(Cl)cc2)N(C)C(=O)[C@H](C)NC(=O)[C@@H](CC(C)C)OC(=O)/C(C)=C/C[C@H](OC(=O)N2CCN(CCO)CC2)[C@@H]1C [Compound 26, (2R,5S,8R,14S,20S,21S,22S,E)-20-((E)-but-2-en-2-yl)-14-((R)-sec-butyl)-8-(4-chlorobenzyl)-2-isobutyl-5,7,10,17,17,21,25-heptamethyl-3,6,9,12,15,18,26-heptaoxo-1,19-dioxa-4,7,10,13,16-pentaazacyclohexacos-24-en-22-yl 4-(2-hydroxyethyl)piperazine-1-carboxylate] | 8.87
8 | C/C=C(\C)[C@H]1OC(=O)C(C)(C)NC(=O)[C@H]([C@H](C)CC)NC(=O)CN(C)C(=O)[C@@H](Cc2ccc(Cl)cc2)N(C)C(=O)[C@H](C)NC(=O)[C@@H](CC(C)C)OC(=O)/C(C)=C/C[C@H](O)[C@@H]1C [Compound 21, (6S,12R,15S,18R,24S,25S,26S,E)-26-((E)-but-2-en-2-yl)-6-((R)-sec-butyl)-12-(4-chlorobenzyl)-24-hydroxy-18-isobutyl-3,3,10,13,15,21,25-heptamethyl-1,19-dioxa-4,7,10,13,16-pentaazacyclohexacos-21-ene-2,5,8,11,14,17,20-heptaone] | 9.25
9 | C/C=C(\C)[C@H]1OC(=O)[C@@H](C)NC(=O)[C@H]([C@H](C)CC)NC(=O)CN(C)C(=O)[C@@H](Cc2ccccc2)N(C)C(=O)[C@H](C)NC(=O)[C@@H](CC(C)C)OC(=O)/C(C)=C/C[C@H](OC(=O)NCCc2ccc(O)cc2)[C@@H]1C [Compound 10, (2R,5S,8R,14S,17R,20S,21S,22S,E)-8-benzyl-20-((E)-but-2-en-2-yl)-14-((R)-sec-butyl)-2-isobutyl-5,7,10,17,21,25-hexamethyl-3,6,9,12,15,18,26-heptaoxo-1,19-dioxa-4,7,10,13,16-pentaazacyclohexacos-24-en-22-yl (4-hydroxyphenethyl)carbamate] | 8.87
10 | C/C=C(\C)[C@H]1OC(=O)C(C)(C)NC(=O)[C@H]([C@H](C)CC)NC(=O)CN(C)C(=O)[C@@H](Cc2ccc(C#N)cc2)N(C)C(=O)[C@H](C)NC(=O)[C@@H](CC(C)C)OC(=O)/C(C)=C/C[C@H](OC(=O)NCCCCCO)[C@@H]1C [Compound 29, (2R,5S,8R,14S,20S,21S,22S,E)-20-((E)-but-2-en-2-yl)-14-((R)-sec-butyl)-8-(4-cyanobenzyl)-2-isobutyl-5,7,10,17,17,21,25-heptamethyl-3,6,9,12,15,18,26-heptaoxo-1,19-dioxa-4,7,10,13,16-pentaazacyclohexacos-24-en-22-yl (5-hydroxypentyl)carbamate] | 7.56
11 | C/C=C(\C)[C@H]1OC(=O)C(C)(C)NC(=O)[C@H](C(C)CC)NC(=O)CN(C)C(=O)[C@@H](Cc2ccc(Cl)cc2)N(C)C(=O)[C@H](C)NC(=O)[C@@H](CC(C)C)OC(=O)/C(C)=C/C[C@H](OC(=O)NCCCCCO)[C@@H]1C (stereo partly drawn) [Compound 22, (2R,5S,8R,14S,20S,21S,22S,E)-20-((E)-but-2-en-2-yl)-14-((R)-sec-butyl)-8-(4-chlorobenzyl)-2-isobutyl-5,7,10,17,17,21,25-heptamethyl-3,6,9,12,15,18,26-heptaoxo-1,19-dioxa-4,7,10,13,16-pentaazacyclohexacos-24-en-22-yl(5-hydroxypentyl)carbamate] | 8.14
12 | C/C=C(\C)[C@H]1OC(=O)[C@@H](C)NC(=O)[C@H]([C@H](C)CC)NC(=O)CN(C)C(=O)[C@@H](Cc2ccccc2)N(C)C(=O)[C@H](C)NC(=O)[C@@H](CC(C)C)OC(=O)/C(C)=C/C[C@H](OC(=O)NCCCCCCCCCCCCO)[C@@H]1C [Compound 13, (2R,5S,8R,14S,17R,20S,21S,22S,E)-8-benzyl-20-((E)-but-2-en-2-yl)-14-((R)-sec-butyl)-2-isobutyl-5,7,10,17,21,25-hexamethyl-3,6,9,12,15,18,26-heptaoxo-1,19-dioxa-4,7,10,13,16-pentaazacyclohexacos-24-en-22-yl (12-hydroxydodecyl)carbamate] | 7.74
13 | C/C=C(\C)[C@H]1OC(=O)[C@@H](C)NC(=O)[C@H](C(C)CC)NC(=O)CN(C)C(=O)[C@@H](Cc2ccc(Cl)cc2)N(C)C(=O)[C@H](C)NC(=O)[C@@H](CC(C)C)OC(=O)/C(C)=C/C[C@H](OC(=O)N(C)CCCCCCNC)[C@@H]1C (stereo partly drawn) [Compound 19, (2R,5S,8R,14S,17R,20S,21S,22S,E)-20-((E)-but-2-en-2-yl)-14-((R)-sec-butyl)-8-(4-chlorobenzyl)-2-isobutyl-5,7,10,17,21,25-hexamethyl-3,6,9,12,15,18,26-heptaoxo-1,19-dioxa-4,7,10,13,16-pentaazacyclohexacos-24-en-22-yl methyl (6-(methylamino)hexyl)carbamate] | 8.38
